Measured values as given in PubChem BioAssay (NCI).
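Briefly, cells in 96-well plates were exposed to five compound concentrations for 48 h, and endpoints were estimated by linear interpolation. At the TGI there is no net growth.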

Columns and labels:
Assay in all cases: inhibition of tumour cell growth, NCI panel, 48 h
A498 renal = tested on: A498 renal
A549 NSCLC = tested on: A549 NSCLC
ACHN renal = tested on: ACHN renal
BT-549 breast = tested on: BT-549 breast
CAKI-1 renal = tested on: CAKI-1 renal
CCRF-CEM leukemia = tested on: CCRF-CEM leukemia
DU-145 prostate = tested on: DU-145 prostate
EKVX NSCLC = tested on: EKVX NSCLC
HCC-2998 colon = tested on: HCC-2998 colon
HCT-116 colon = tested on: HCT-116 colon
HCT-15 colon = tested on: HCT-15 colon
HL-60(TB) leukemia = tested on: HL-60(TB) leukemia
HOP-62 NSCLC = tested on: HOP-62 NSCLC
HT29 colon = tested on: HT29 colon
K-562 leukemia = tested on: K-562 leukemia
KM12 colon = tested on: KM12 colon
LOX IMVI melanoma = tested on: LOX IMVI melanoma
M14 melanoma = tested on: M14 melanoma
MALME-3M melanoma = tested on: MALME-3M melanoma
MCF7 breast = tested on: MCF7 breast
MDA-MB-231 breast = tested on: MDA-MB-231 breast
MDA-MB-435 = tested on: MDA-MB-435
MDA-N = tested on: MDA-N
MOLT-4 leukemia = tested on: MOLT-4 leukemia
NCI-H226 lung = tested on: NCI-H226 lung
NCI-H23 lung = tested on: NCI-H23 lung
NCI-H460 lung = tested on: NCI-H460 lung
OVCAR-3 ovarian = tested on: OVCAR-3 ovarian
OVCAR-4 ovarian = tested on: OVCAR-4 ovarian
OVCAR-5 ovarian = tested on: OVCAR-5 ovarian
RPMI-8226 leukemia = tested on: RPMI-8226 leukemia
RXF 393 renal = tested on: RXF 393 renal
SF-268 CNS = tested on: SF-268 CNS
SF-539 CNS = tested on: SF-539 CNS
SK-MEL-2 melanoma = tested on: SK-MEL-2 melanoma
SK-MEL-28 melanoma = tested on: SK-MEL-28 melanoma
SK-MEL-5 melanoma = tested on: SK-MEL-5 melanoma
SK-OV-3 ovarian = tested on: SK-OV-3 ovarian
SN12C renal = tested on: SN12C renal
SNB-19 CNS = tested on: SNB-19 CNS
SR leukemia = tested on: SR leukemia
T-47D breast = tested on: T-47D breast
TK-10 renal = tested on: TK-10 renal
U251 CNS = tested on: U251 CNS
UACC-257 melanoma = tested on: UACC-257 melanoma
UACC-62 melanoma = tested on: UACC-62 melanoma
UO-31 renal = tested on: UO-31 renal
786-0 renal = tested on: 786-0 renal
COLO 205 colon = tested on: COLO 205 colon
HOP-92 NSCLC = tested on: HOP-92 NSCLC
IGROV1 ovarian = tested on: IGROV1 ovarian
NCI-H522 lung = tested on: NCI-H522 lung
OVCAR-8 ovarian = tested on: OVCAR-8 ovarian
PC-3 prostate = tested on: PC-3 prostate
SF-295 CNS = tested on: SF-295 CNS
SNB-75 CNS = tested on: SNB-75 CNS
SW-620 colon = tested on: SW-620 colon

Compound: CCc1c(-c2ccccc2)[nH]c2ccccc2c1=O
- TGI (A498 renal): > 100 µM
- TGI (A549 NSCLC): > 100 µM
- TGI (ACHN renal): > 100 µM
- TGI (BT-549 breast): > 100 µM
- TGI (CAKI-1 renal): > 100 µM
- TGI (CCRF-CEM leukemia): > 100 µM
- TGI (DU-145 prostate): > 100 µM
- TGI (EKVX NSCLC): > 100 µM
- TGI (HCC-2998 colon): > 100 µM
- TGI (HCT-116 colon): > 100 µM
- TGI (HCT-15 colon): > 100 µM
- TGI (HL-60(TB) leukemia): > 100 µM
- TGI (HOP-62 NSCLC): > 100 µM
- TGI (HT29 colon): > 100 µM
- TGI (K-562 leukemia): > 100 µM
- TGI (KM12 colon): > 100 µM
- TGI (LOX IMVI melanoma): > 100 µM
- TGI (M14 melanoma): > 100 µM
- TGI (MALME-3M melanoma): > 100 µM
- TGI (MCF7 breast): > 100 µM
- TGI (MDA-MB-231 breast): > 100 µM
- TGI (MDA-MB-435): > 100 µM
- TGI (MDA-N): > 100 µM
- TGI (MOLT-4 leukemia): > 100 µM
- TGI (NCI-H226 lung): 84 µM
- TGI (NCI-H23 lung): > 100 µM
- TGI (NCI-H460 lung): > 100 µM
- TGI (OVCAR-3 ovarian): > 100 µM
- TGI (OVCAR-4 ovarian): > 100 µM
- TGI (OVCAR-5 ovarian): > 100 µM
- TGI (RPMI-8226 leukemia): > 100 µM
- TGI (RXF 393 renal): > 100 µM
- TGI (SF-268 CNS): > 100 µM
- TGI (SF-539 CNS): > 100 µM
- TGI (SK-MEL-2 melanoma): > 100 µM
- TGI (SK-MEL-28 melanoma): > 100 µM
- TGI (SK-MEL-5 melanoma): > 100 µM
- TGI (SK-OV-3 ovarian): > 100 µM
- TGI (SN12C renal): > 100 µM
- TGI (SNB-19 CNS): > 100 µM
- TGI (SR leukemia): > 100 µM
- TGI (T-47D breast): > 100 µM
- TGI (TK-10 renal): > 100 µM
- TGI (U251 CNS): > 100 µM
- TGI (UACC-257 melanoma): > 100 µM
- TGI (UACC-62 melanoma): > 100 µM
- TGI (UO-31 renal): 0.266 µM

Compound: Cc1nc2ccccc2c(=O)n1NC(=O)c1ccc(N)cc1
- TGI (786-0 renal): > 100 µM
- TGI (A498 renal): > 100 µM
- TGI (A549 NSCLC): > 100 µM
- TGI (ACHN renal): > 100 µM
- TGI (BT-549 breast): > 100 µM
- TGI (CCRF-CEM leukemia): > 100 µM
- TGI (COLO 205 colon): > 100 µM
- TGI (DU-145 prostate): > 100 µM
- TGI (EKVX NSCLC): > 100 µM
- TGI (HCC-2998 colon): > 100 µM
- TGI (HCT-116 colon): > 100 µM
- TGI (HL-60(TB) leukemia): > 100 µM
- TGI (HOP-62 NSCLC): > 100 µM
- TGI (HOP-92 NSCLC): > 100 µM
- TGI (HT29 colon): > 100 µM
- TGI (IGROV1 ovarian): > 100 µM
- TGI (K-562 leukemia): > 100 µM
- TGI (KM12 colon): > 100 µM
- TGI (LOX IMVI melanoma): > 100 µM
- TGI (M14 melanoma): > 100 µM
- TGI (MALME-3M melanoma): > 100 µM
- TGI (MCF7 breast): > 100 µM
- TGI (MDA-MB-231 breast): > 100 µM
- TGI (MDA-MB-435): > 100 µM
- TGI (MDA-N): > 100 µM
- TGI (MOLT-4 leukemia): > 100 µM
- TGI (NCI-H226 lung): > 100 µM
- TGI (NCI-H23 lung): > 100 µM
- TGI (NCI-H460 lung): > 100 µM
- TGI (NCI-H522 lung): > 100 µM
- TGI (OVCAR-3 ovarian): > 100 µM
- TGI (OVCAR-4 ovarian): > 100 µM
- TGI (OVCAR-5 ovarian): > 100 µM
- TGI (OVCAR-8 ovarian): > 100 µM
- TGI (PC-3 prostate): > 100 µM
- TGI (RPMI-8226 leukemia): > 100 µM
- TGI (RXF 393 renal): > 100 µM
- TGI (SF-268 CNS): > 100 µM
- TGI (SF-295 CNS): > 100 µM
- TGI (SF-539 CNS): > 100 µM
- TGI (SK-MEL-28 melanoma): > 100 µM
- TGI (SK-MEL-5 melanoma): > 100 µM
- TGI (SK-OV-3 ovarian): > 100 µM
- TGI (SN12C renal): > 100 µM
- TGI (SNB-19 CNS): > 100 µM
- TGI (SNB-75 CNS): > 100 µM
- TGI (SR leukemia): > 100 µM
- TGI (SW-620 colon): > 100 µM
- TGI (T-47D breast): > 100 µM
- TGI (TK-10 renal): > 100 µM
- TGI (U251 CNS): > 100 µM
- TGI (UACC-257 melanoma): > 100 µM
- TGI (UACC-62 melanoma): > 100 µM
- TGI (UO-31 renal): > 100 µM
